Measurements reported in patent publication US11352354B2, “Substituted penta-fused hexa-heterocyclic compounds, preparation method therefor, drug combination and use thereof” (Xiamen University, priority 2017, dated 2022).
Marks after values point to notes of the source that are not given here.

Experiments:
ST486 cells = assay: Growth inhibition of PIKfyve-mediated tumor cells by Cell Titer Glo method, ST486; format: cell-based; conditions: Homo sapiens, 120 h, CellTiter-Glo, 5 days of culture, read-out: Inhibition rate % (ST486)
Experimental: (§1) IV. Determination of Growth Inhibition Rates of Compounds Against PIKfyve-Mediated Tumor Cells by Cell Titer Glo Method
(§2) 1. Cell plating: cells in logarithmic growth phase were counted and inoculated in 384-well plate.
(§3) 3. […] RLU was measured on PHERAstar Plus.

Toledo cells = assay: Growth inhibition of PIKfyve-mediated tumor cells by Cell Titer Glo method, Toledo; format: cell-based; conditions: Homo sapiens, 120 h, CellTiter-Glo, 5 days of culture, read-out: Inhibition rate % (Toledo)
Experimental: as §1, §2, §3

PIKfyve protein = PIKfyve protein (Homo sapiens (Human), UniProt Q9Y2I7); assay: Dissociation equilibrium constant (Kd) of compound and PIKfyve protein, DiscoverX KINOMEscan; format: binding; conditions: eleven 3-fold dilutions, curve fitting
Sequence of PIKfyve protein (Q9Y2I7 whole entry): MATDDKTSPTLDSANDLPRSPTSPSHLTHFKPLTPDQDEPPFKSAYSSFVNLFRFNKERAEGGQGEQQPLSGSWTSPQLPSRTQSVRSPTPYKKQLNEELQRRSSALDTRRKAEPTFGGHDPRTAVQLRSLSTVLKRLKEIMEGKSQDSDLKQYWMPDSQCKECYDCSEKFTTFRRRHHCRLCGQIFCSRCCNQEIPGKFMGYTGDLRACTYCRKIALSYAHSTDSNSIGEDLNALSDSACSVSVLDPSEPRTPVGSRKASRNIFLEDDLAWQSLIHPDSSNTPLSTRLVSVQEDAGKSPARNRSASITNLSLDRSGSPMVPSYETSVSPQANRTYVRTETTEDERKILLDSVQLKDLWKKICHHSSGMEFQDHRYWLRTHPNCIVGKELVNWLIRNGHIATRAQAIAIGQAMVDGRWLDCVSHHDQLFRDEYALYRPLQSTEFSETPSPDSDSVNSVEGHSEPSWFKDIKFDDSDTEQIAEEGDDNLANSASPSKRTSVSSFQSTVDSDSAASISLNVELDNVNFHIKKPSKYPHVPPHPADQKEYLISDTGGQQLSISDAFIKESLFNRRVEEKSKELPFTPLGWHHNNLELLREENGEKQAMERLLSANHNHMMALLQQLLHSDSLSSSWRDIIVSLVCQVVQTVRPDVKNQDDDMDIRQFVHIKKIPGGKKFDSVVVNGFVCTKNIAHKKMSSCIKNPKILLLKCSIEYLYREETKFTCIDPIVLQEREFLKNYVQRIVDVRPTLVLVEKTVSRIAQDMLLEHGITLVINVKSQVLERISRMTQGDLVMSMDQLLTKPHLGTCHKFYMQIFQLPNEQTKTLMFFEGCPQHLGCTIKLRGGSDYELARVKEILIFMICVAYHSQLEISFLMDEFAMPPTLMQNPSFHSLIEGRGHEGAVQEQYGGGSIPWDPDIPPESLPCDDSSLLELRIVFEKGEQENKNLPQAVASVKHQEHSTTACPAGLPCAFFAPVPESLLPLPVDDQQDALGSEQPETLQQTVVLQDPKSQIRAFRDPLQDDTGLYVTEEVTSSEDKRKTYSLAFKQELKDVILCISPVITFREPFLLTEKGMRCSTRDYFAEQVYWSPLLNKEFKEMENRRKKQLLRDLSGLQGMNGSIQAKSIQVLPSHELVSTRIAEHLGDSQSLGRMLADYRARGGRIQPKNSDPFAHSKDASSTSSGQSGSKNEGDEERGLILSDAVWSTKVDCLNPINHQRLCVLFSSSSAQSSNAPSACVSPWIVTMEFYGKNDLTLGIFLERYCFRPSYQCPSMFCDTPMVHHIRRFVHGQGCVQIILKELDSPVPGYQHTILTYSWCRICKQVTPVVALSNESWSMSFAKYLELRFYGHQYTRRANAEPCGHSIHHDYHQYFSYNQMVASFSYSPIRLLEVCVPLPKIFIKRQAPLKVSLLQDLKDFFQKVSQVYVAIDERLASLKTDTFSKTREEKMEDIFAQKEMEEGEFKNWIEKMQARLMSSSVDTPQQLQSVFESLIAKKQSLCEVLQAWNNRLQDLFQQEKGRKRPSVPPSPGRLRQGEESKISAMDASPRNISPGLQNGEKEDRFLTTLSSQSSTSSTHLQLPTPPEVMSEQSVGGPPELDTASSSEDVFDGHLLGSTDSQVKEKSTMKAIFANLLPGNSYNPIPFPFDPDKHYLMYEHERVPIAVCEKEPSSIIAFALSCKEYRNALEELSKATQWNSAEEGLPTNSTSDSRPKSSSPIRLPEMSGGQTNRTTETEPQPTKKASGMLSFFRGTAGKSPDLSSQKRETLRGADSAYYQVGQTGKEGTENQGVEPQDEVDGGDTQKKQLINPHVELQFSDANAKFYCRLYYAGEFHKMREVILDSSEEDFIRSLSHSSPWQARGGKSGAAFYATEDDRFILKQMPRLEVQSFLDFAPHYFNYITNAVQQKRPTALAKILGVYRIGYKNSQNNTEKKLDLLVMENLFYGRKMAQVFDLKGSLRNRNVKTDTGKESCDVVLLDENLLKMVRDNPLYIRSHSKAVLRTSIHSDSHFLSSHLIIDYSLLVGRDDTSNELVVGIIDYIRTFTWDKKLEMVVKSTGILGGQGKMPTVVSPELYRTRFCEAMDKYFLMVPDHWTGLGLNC
Experimental: II. Determination of Dissociation Equilibrium Constant (Kd Value) of Compound and PIKfyve Protein
The Kd value was determined by DiscoverX's KINOMEscan™ technology according to the following steps:
1. Preparation of magnetic beads: biotin-labeled small molecule ligand and avidin-coated magnetic beads were allowed to interact at room temperature for 30 minutes, and then added with excess biotin, followed by washing with a blocking solution (1% BSA, 0.05% Tween 20, 1 mM DTT) to remove unbound ligand.
2. Binding reaction: in a 384 plate, 0.02 mL system, DNA-labeled protein, small molecule ligand-bound magnetic beads, and different concentrations of compound to be tested were mixed in a reaction solution (0.17×PBS, 0.05% Tween 20, 6 mM DTT) at room temperature with shaking for 1 hr, to which was added an eluant (1×PBS, 0.05% Tween 20) for elution. Magnetic beads were resuspended by an eluant (1×PBS, 0.05% Tween 20, 0.5 μM non-biotin-labeled small molecule ligand), and shaken at room temperature for 30 min before separating out the eluant.
3. Determination of Kd value: the content of protein in the above eluate was determined by qPCR. Eleven 3-fold dilution concentrations were determined for the compound to be tested, with 3 DMSO controls for each concentration, and the Kd value was obtained by curve fitting.

MDA-MB-231 cells = assay: Vacuolation of MDA-MB-231 cells caused by inhibition of compounds on PIKfyve (microscopy); format: cell-based; conditions: MDA-MB-231 cells
From the text: I. Determination of Vacuolation of MDA-MB-231 Cells Caused by Inhibition of Compounds on PIKfyve
When the activity of pikfyve kinase is inhibited, vacuoles will be produced in cytoplasm. By observing the number of vacuoles under a microscope, the ability of compounds to inhibit the activity of pikfyve kinase can be known.
1. Cell plating: cells in logarithmic growth phase were made into a single cell suspension, counted with a cell counter and diluted to a cell concentration of about 2×10^5/mL. Then, the cells were inoculated into a 12-well plate, and cultured in a 37° C., 5% CO2 incubator.
3. Vacuolation test: after 24 and 48 hours of culture, photos were taken under an […] to observe the degree of vacuolation.
(In the table, “+” represents the degree of vacuolation; more “+” indicates more obvious vacuolation; “−” represents no vacuolation)

JeKo-1 cells = assay: Tumor cell growth inhibition by MTS method, JeKo-1; format: cell-based; conditions: 5 days of culture; for IC50 / inhibition at 10 µM: Homo sapiens, JeKo-1, 120 h; for inhibition at 10 µM: read-out: cell growth inhibition rate of compounds at 10 μM
Experimental: III. Determination of IC50 Value of Compound for Inhibiting Tumor Cell Growth by MTS Method
1. Cell plating: cells in logarithmic growth phase were counted and inoculated in a 96-well plate (20000 cells per well).
2. Administrating agent to cell: 10 mM compound mother solution in DMSO was subjected to 3 fold-gradient dilution, to set 8 concentrations, which were then added to various wells, with three replicates for each concentration, and three blank wells (only culture medium) and three negative controls (containing 0.1% DMSO) on each plate.
3. […] The OD value at 490 nm was measured with microplate reader OD490. The cell growth inhibition rate was calculated by the following formula: Cell growth inhibition rate %=1−(ODexperimental group−ODblank group)/(ODnegative group−ODblank group)×100%
The semi-inhibitory concentration IC50 of the compound acting on cell growth was calculated using GradPad Prism 5 software according to the measured cell growth inhibition rate.
In the following table it lists the IC50 value or the inhibition rates of some compounds at 10 μM against JeKo-1 cells

Row | Structure (SMILES) | Kd (PIKfyve protein) [µM] | IC50 (JeKo-1 cells) [µM] | inhibition at 3.3 µM (ST486 cells) [%] | inhibition at 3.3 µM (Toledo cells) [%] | degree of vacuolation, 1 μM, 24 h (MDA-MB-231 cells) | degree of vacuolation, 1 μM, 48 h (MDA-MB-231 cells) | degree of vacuolation, 10 μM, 24 h (MDA-MB-231 cells) | degree of vacuolation, 10 μM, 48 h (MDA-MB-231 cells) | cell growth inhibition rate of compounds at 10 μM (JeKo-1 cells; 10 μM) [%^a] | inhibition at 10 µM (JeKo-1 cells; 10 μM) [%]
1 | CS(=O)(=O)Nc1cccc(Nc2nc(-c3cccnc3)c3[nH]ccc3n2)c1 [V-c-1] | 0.13 |  | 35.2 | 43.1 | − | − | ++ | ++ |  | 
2 | Cc1ccc(C(=O)Nc2cccc(C(F)(F)F)c2)cc1Nc1nc(-c2cccnc2)cn2ccnc12 [VI-a-6] |  |  |  |  | − |  | − |  | 11.3 | 
3 | Cc1ccc(NC(=O)c2cccc(C(F)(F)F)c2)cc1Nc1nc(-c2cccnc2)cn2c(C)cnc12 [VI-b-7] |  |  |  |  | − | − | + | + |  | 16.5
4 | Cc1ccc(Nc2nc(-c3cccc(NC(=O)c4cccc(C(F)(F)F)c4)c3)nc3ccsc23)cn1 [VII-a-15] |  | 2.67 |  |  | + | + | + | + |  | 
5 | Cc1ccc(Nc2nc(-c3cccc(NC(=O)c4ccc(N)nc4)c3)nc3ccsc23)cn1 [VII-a-16] |  | 0.824 |  |  | + | + | + | + |  | 
6 | Cc1ccc(Nc2nc(-c3cccc(NC(=O)c4ccc(N)nc4)c3)nc3ccsc23)nc1 [VII-a-17] |  | 1.15 |  |  | − | − | − | − |  | 
7 | Cc1ccnc(Nc2nc(-c3cccc(NC(=O)c4cccc(C(F)(F)F)c4)c3)nc3ccsc23)c1 [VII-a-18] |  | 2.56 |  |  | + | + | + | + |  | 
8 | Cc1ccnc(Nc2nc(-c3cccc(NC(=O)c4ccc(N)nc4)c3)nc3ccsc23)c1 [VII-a-19] |  | 1.52 |  |  | − | − | − | − |  | 
9 | O=C(Nc1cccc(Nc2cc(-c3cccnc3)nc3sccc23)c1)c1cccc(C(F)(F)F)c1 [VIII-a-1] |  | 2.71 |  |  | ++ | ++ | ++ | ++ |  | 
10 | O=C(Nc1cccc(Nc2cc(-c3ccncc3)nc3sccc23)c1)c1cccc(C(F)(F)F)c1 [VIII-a-2] |  | 3.26 |  |  | ++ | ++ | ++ | ++ |  | 
11 | Cc1ccc(NC(=O)c2cccc(C(F)(F)F)c2)cc1Nc1cc(-c2cccnc2)nc2sccc12 [VIII-a-3] |  | 2.01 |  |  | ++ | ++ | ++ | ++ |  | 
12 | Cc1ccc(NC(=O)c2cccc(C(F)(F)F)c2)cc1Nc1cc(-c2ccncc2)nc2sccc12 [VIII-a-4] |  |  |  |  | + | + | + | + |  | 17.3
13 | O=C(Nc1cccc(C(F)(F)F)c1)c1cccc(Nc2cc(-c3cccnc3)nc3sccc23)c1 [VIII-a-5] |  | 5.14 |  |  | − | + | + | + |  | 

Second part, led by results:

Row | Kd (PIKfyve protein) [µM] | IC50 (JeKo-1 cells) [µM] | Structure (SMILES) | inhibition at 3.3 µM (ST486 cells) [%] | inhibition at 3.3 µM (Toledo cells) [%] | degree of vacuolation, 1 μM, 24 h (MDA-MB-231 cells) | degree of vacuolation, 1 μM, 48 h (MDA-MB-231 cells) | degree of vacuolation, 10 μM, 24 h (MDA-MB-231 cells) | degree of vacuolation, 10 μM, 48 h (MDA-MB-231 cells) | cell growth inhibition rate of compounds at 10 μM (JeKo-1 cells; 10 μM) [%^a] | inhibition at 10 µM (JeKo-1 cells; 10 μM) [%]
14 |  | 3.28 | Cc1ccc(C(=O)Nc2cccc(C(F)(F)F)c2)cc1Nc1nc(-c2cccnc2)c2[nH]ccc2n1 [V-c-7] | 91.3 | 95.8 | ++ | ++ | + | + |  | 
15 | 0.029 |  | Cc1ccc(C(=O)Nc2cc(C(F)(F)F)cc(C(F)(F)F)c2)cc1Nc1nc(-c2cccnc2)c2[nH]ccc2n1 [V-c-9] | 37.7 | 19.3 |  |  |  |  |  | 
16 | 0.91 |  | Cc1ccc(NC(=O)c2cc(C(F)(F)F)cc(C(F)(F)F)c2)cc1Nc1nc(-c2cccnc2)c2[nH]ccc2n1 [V-c-21] | 23.8 | 99.5 |  |  |  |  |  | 
17 | > 30 |  | Cc1cc(NC(=O)c2cccc(C(F)(F)F)c2)ccc1Nc1nc(-c2cccnc2)c2[nH]ccc2n1 [V-c-24] | 55.8 | 97.3 |  |  |  |  |  | 
18 | > 30 |  | Cc1ccc(C(=O)Nc2cccc(C(F)(F)F)c2)cc1Nc1nc(-c2ccncc2)c2[nH]ccc2n1 [V-c-38] | 30 | 53.3 |  |  |  |  |  | 
19 | > 30 |  | Cc1ccc(NC(=O)c2cccc(C(F)(F)F)c2)cc1Nc1nc(-c2ccncc2)c2[nH]ccc2n1 [V-c-39] | 9.57 | 49.1 |  |  |  |  |  | 
20 | > 30 |  | Cc1ccc(NC(=O)c2cccc(C(F)(F)F)c2)cc1Nc1nc(-c2ccccc2)c2[nH]ccc2n1 [V-c-41] |  |  |  |  |  |  |  | 
21 | > 30 |  | Cc1ccc(NC(=O)c2cccc(C(F)(F)F)c2)cc1Nc1nc(-c2ccco2)c2[nH]ccc2n1 [V-c-42] |  |  |  |  |  |  |  | 
22 | > 30 |  | Cc1ccc(NC(=O)c2cccc(C(F)(F)F)c2)cc1Nc1nc(-c2cccs2)c2[nH]ccc2n1 [V-c-43] |  |  |  |  |  |  |  | 
23 | > 30 |  | COc1ccc(C(F)(F)F)cc1NC(=O)c1ccc(C)c(Nc2nc(-c3ccccc3)c3[nH]ccc3n2)c1 [V-c-51] |  |  |  |  |  |  |  | 
24 | > 30 |  | COc1ccc(C(F)(F)F)cc1NC(=O)c1ccc(C)c(Nc2nc(-c3ccco3)c3[nH]ccc3n2)c1 [V-c-52] |  |  |  |  |  |  |  | 
25 | > 30 |  | COc1ccc(C(F)(F)F)cc1NC(=O)c1ccc(C)c(Nc2nc(-c3cccs3)c3[nH]ccc3n2)c1 [V-c-53] |  |  |  |  |  |  |  | 
26 | > 30 |  | Cc1ccc(C(=O)Nc2cccc(OC(F)(F)F)c2)cc1Nc1nc(-c2ccccc2)c2[nH]ccc2n1 [V-c-61] |  |  |  |  |  |  |  | 
27 | > 30 |  | Cc1ccc(C(=O)Nc2cccc(OC(F)(F)F)c2)cc1Nc1nc(-c2ccco2)c2[nH]ccc2n1 [V-c-62] |  |  |  |  |  |  |  | 
28 | > 30 |  | Cc1ccc(C(=O)Nc2cccc(OC(F)(F)F)c2)cc1Nc1nc(-c2cccs2)c2[nH]ccc2n1 [V-c-63] |  |  |  |  |  |  |  | 
29 |  | 6.32 | O=C(Nc1cccc(C(F)(F)F)c1)c1cccc(Nc2cc(-c3ccncc3)nc3sccc23)c1 [VIII-a-6] |  |  | + | + | + | + |  | 
30 |  | 3.17 | Cc1ccc(C(=O)Nc2cccc(C(F)(F)F)c2)cc1Nc1cc(-c2cccnc2)nc2sccc12 [VIII-a-7] |  |  | ++ | ++ | +++ | +++ |  | 
31 |  | 2 | Cc1ccc(C(=O)Nc2cccc(C(F)(F)F)c2)cc1Nc1cc(-c2ccncc2)nc2sccc12 [VIII-a-8] |  |  | − | ++ | − | ++ |  | 
